Series [1] concerns ACE. The settings on record: cited from earlier work. The source says: Table 1 The summary of ACE inhibitory peptides by conventional approach and affinity purification on different medium. | column: IC50 || Table 2 The summary of ACE inhibitory peptides have similar structure with purified peptides KNFL from food protein. | column: IC50 (μM) || Researchers have investigated the structure-activity relationship of ACE inhibitor peptides, such as the peptide chain length, amino acid sequence, C- terminal, and N-terminal amino acid sequence. Most of the ACE inhibitors are reported to have small molecular weights (2–12 amino acids), and there are four amino acids in the newly identified peptide KNFL. […] In this study, the C-terminal amino acids (phenylalanine and leucine) of the KNFL peptide have stro ...

Series [2] deals with T1, ACE (Oryctolagus cuniculus, UniProt P12822).
T1 construct: Angiotensin I-converting enzyme (ACE, EC3.4.15.1) from rabbit lung; purchased Sigma-Aldrich Co. (St. Louis, MO, USA); host or cells: rabbit lung (tissue-derived)
T1 sequence (P12822 34-1310): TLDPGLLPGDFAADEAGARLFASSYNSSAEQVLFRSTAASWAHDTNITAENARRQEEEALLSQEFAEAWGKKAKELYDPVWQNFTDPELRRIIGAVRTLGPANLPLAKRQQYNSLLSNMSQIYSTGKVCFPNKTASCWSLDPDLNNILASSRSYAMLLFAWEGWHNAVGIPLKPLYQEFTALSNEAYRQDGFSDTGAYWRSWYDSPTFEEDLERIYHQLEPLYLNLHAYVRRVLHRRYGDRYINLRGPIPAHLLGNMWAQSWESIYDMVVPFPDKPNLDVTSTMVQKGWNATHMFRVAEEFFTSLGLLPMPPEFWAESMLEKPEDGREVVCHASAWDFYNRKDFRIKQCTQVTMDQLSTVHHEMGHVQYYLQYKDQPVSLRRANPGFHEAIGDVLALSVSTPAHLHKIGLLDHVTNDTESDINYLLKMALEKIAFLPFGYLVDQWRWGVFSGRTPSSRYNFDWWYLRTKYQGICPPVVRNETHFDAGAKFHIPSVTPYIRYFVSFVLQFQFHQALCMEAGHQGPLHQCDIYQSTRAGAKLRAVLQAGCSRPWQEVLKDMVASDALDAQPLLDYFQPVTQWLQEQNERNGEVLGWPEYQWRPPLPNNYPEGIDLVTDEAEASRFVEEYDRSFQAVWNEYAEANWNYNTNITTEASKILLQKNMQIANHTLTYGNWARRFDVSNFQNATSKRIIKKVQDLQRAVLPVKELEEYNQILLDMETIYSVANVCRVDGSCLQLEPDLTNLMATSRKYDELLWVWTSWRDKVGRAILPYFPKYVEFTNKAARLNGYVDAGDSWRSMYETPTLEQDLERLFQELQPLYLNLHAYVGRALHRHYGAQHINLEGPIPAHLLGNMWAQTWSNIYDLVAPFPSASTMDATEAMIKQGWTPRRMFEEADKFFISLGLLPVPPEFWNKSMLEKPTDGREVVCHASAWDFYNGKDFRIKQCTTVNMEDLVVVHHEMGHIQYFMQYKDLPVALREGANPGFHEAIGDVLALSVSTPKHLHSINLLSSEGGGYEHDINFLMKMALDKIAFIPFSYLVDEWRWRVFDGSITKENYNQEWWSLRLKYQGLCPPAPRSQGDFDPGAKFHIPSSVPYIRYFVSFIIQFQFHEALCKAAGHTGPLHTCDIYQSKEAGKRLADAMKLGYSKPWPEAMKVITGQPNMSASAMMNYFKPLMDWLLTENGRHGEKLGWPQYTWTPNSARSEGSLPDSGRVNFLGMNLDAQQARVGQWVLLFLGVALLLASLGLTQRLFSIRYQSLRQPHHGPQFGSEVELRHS
Kind of series: Inhibition pattern / kinetics of ACE in presence of KNFL. It counts as biochemical, rabbit. The note with it: for Vmax: nonlinear regression, control 55.492. The text has this: ACE inhibitor peptides have been reported with competitive, noncompetitive, uncompetitive, and mixed modes of interaction. The kinetic constants were estimated by using nonlinear regression analysis (SPSS, version 26.0, Inc., Chicago, IL, USA) and the nonlinear fitting plots were shown in Figure 8. […] Mixed-type inhibitors interact with the non-catalytic site of the enzyme and combine with the enzyme to produce an ACE–HHL(Hip-His-Leu) peptide complex which might leads to conformational changes and a decrease in substrate affinity at the active site resulting in loss of activity. A great many of ACE inhibitor peptides acted in a mixed-type manner. For example, the MAINPSKENLCSTFCK peptide produced from casein hydrolysates, and EVSQGRP, VSRHFASYAN and SAAVGSP generated from Stichopus horrens.
Angiotensin I-converting enzyme (ACE, EC3.4.15.1) from rabbit lung, HHL (Hippuryl-L-histidyl-L-leucine), were obtained from Sigma-Aldrich Co. (St. Louis, MO, USA). The ACE inhibitor KNFL (Lys-Asn-Phe-Leu) was supplied by GL Biochem Ltd. (Shanghai, China). Iron chloride hexahydrate (FeCl3·6H2O), ethylene glycol (EG), diethylene glycol (DEG), sodium acetate anhydrous (NaAc), and zinc acetate dehydrate Zn(CH3COO)2·2H2O were all obtained from Sinopharm Chemical Reagent Co., Ltd. (Shanghai, China). Polyacrylic acid (PAA), imidazolate-2-carboxyaldehyde (2-ICA, 98 %), sodium acrylate (NaAA) were purchased from Macklin Biochemical Co., Ltd (Shanghai, China). The other chemicals and reagents used were of AR grade and used without further purification.
ACE activity was evaluated by measuring the amount of hippuric acid (HA). The assay mixture (0.3 mL) consisted of 130 µL BBS buffer pH 8.3 ([…], containing 0.3 M NaCl), 40 µL HHL (5 mM), and different amounts of the free and immobilized ACE. Incubation was carried out at 37 °C for 10 min and was terminated by addition of HCl (0.1 mL, 1 M). The HA content of the mixture was determined by RP-HPLC (Agilent 1260) at 228 nm with a DAD detector. One unit of ACE enzyme activity (U) was defined as the amount of enzyme catalyzing HHL to generate 1 µM of HA per minute under the experimental conditions.

The conditions of series [3]: amino acid residue; source not given; cited from earlier work.
Series [4] has as its system ACE. The note with it: cited from earlier work. The source says: ACE inhibitor peptides have been reported with competitive, noncompetitive, uncompetitive, and mixed modes of interaction. The kinetic constants were estimated by using nonlinear regression analysis (SPSS, version 26.0, Inc., Chicago, IL, USA) and the nonlinear fitting plots were shown in Figure 8. […] Mixed-type inhibitors interact with the non-catalytic site of the e ...
This is another data set of the same source.

The conditions of series [5]: synthetic ACE inhibitors in hypertension treatment; ref [1]; cited from earlier work. The text has this: As a zinc-dependent carboxypeptidase, angiotensin-I-converting enzyme (ACE EC 3.4.15.1) is prolific in biological tissues and blood, and plays an important role in modulating blood pressure. ACE cannot only convert angiotensin I to angiotensin II (a potent vasoconstrictor), but it can also degrade the vasodilator bradykinin [2]. ACE inhibitors are, thus, a class of drugs frequently used in the treatment of hypertension. Synthetic ACE inhibitors, including captopril, benazepril, enalapril, and perindopril are associated with various side effects, such as cough, taste disturbances, aller ...

Setting [6] is: Wakame, conventional approach, ref [28].
Setting [7] is: in the presence of KNFL (192 and 384 µM).
[8] abbreviates: generated from Stichopus horrens, ref [51].
The mark [9] stands for this setting: Volutharpa ampullaceal perryi, affinity purification/ Zn-SBA-15-ACE, ref [12].

These results are taken from article PMC8004985, “Affinity Purification of Angiotensin Converting Enzyme Inhibitory Peptides from Wakame (Undaria Pinnatifida) Using Immobilized ACE on Magnetic Metal Organic Frameworks” (Marine Drugs, 2021).

Like-named read-outs stand apart in the source and are kept apart here. Residues, ends and D or L forms follow the SMILES beside them.

Turning to KFYG, the IC50 in series [1] (setting [6]) is 90.5 µM. For RVCLP, the IC50 in series [1] (lizard fish, conventional approach, ref [29]) is 175 µM. For the molecule LLYQEPVLGPVR, the IC50 in series [1] (casein, affinity purification/ IMAM @ mPEG, ref [9]) is 274 ± 5 µM. Turning to `CC(C)C[C@H](NC(=O)[C@H](Cc1ccccc1)NC(=O)[C@H](CC(N)=O)NC(=O)[C@@H](N)CCCCN)C(=O)O` [KNFL, Lys-Asn-Phe-Leu] (H-KNFL-OH; N-terminus and C-terminus assumed), the Vmax in series [2] (KNFL at 192 µM) is recorded as 45.958 µM/L·min. Moreover, the Vmax in series [2] (KNFL at 384 µM) is listed as 24.105 µM/L·min. Further, the inhibition pattern result in series [2] (b33/b37: nonlinear regression, b1: Lineweaver–Burk analysis) is reported as “mixed-type inhibition”. Moreover, in series [2] (setting [7]), the “effect on Km” value is given as “increased” and the “effect on Vmax” value is “decreased in a dose-dependent pattern”.

With YKYY, in series [1] (setting [6]), the IC50 was 64.2 µM. In the case of YNKL, the IC50 in series [1] (setting [6]) is 21 µM. As for `N=C(N)NCCC[C@H](N)C(=O)O` [arginine], the “Lipophilicity Parameters” value in series [3] is listed as −4.5. `N[C@@H](Cc1c[nH]cn1)C(=O)O` [histidine]: in series [3], the “Lipophilicity Parameters” value was −3.2. Turning to “VSRHFASYAN [peptide generated from Stichopus horrens]”, the inhibition mode entry in series [4] (setting [8]) is on record as “mixed-type”. Consider “SAAVGSP [peptide generated from Stichopus horrens]”, for which the inhibition mode result in series [4] (setting [8]) was “mixed-type”. With RYRP, the half-maximal inhibitory concentration (IC50) in series [1] (lizard fish, affinity purification/ IMAC-Ni^2+, ref [39]) is 52 µM. As for HLHT, the IC50 in series [1] (Pinctada fucata martensii, affinity purification/ IMAM @ mPEG, ref [10]) was 458.1 ± 3.24 µM.

With `CCOC(=O)[C@H](CCc1ccccc1)N[C@@H](C)C(=O)N1CCC[C@H]1C(=O)O` [enalapril], the side effects entry in series [5] was “cough, taste disturbances, allergic reactions, and skin rashes”. For the molecule `NC(=O)C[C@H](N)C(=O)O` [asparagine], in series [3], the “Lipophilicity Parameters” value is on record as −3.5.

`N[C@@H](CCC(=O)O)C(=O)O` [glutamic acid]: the “Lipophilicity Parameters” value in series [3] is −3.5.

Regarding “EVSQGRP [peptide generated from Stichopus horrens]”, in series [4] (setting [8]), the inhibition mode entry is listed as “mixed-type”.

Turning to `CCC[C@H](N[C@@H](C)C(=O)N1[C@H](C(=O)O)C[C@@H]2CCCC[C@@H]21)C(=O)OCC` [perindopril], the side effects result in series [5] was “cough, taste disturbances, allergic reactions, and skin rashes”. As to KNGDGY, in series [1] (Cuttlefish, ref [49]), the IC50 was 51.6 µM. Turning to WYLHYA, the IC50 in series [1] (casein, affinity purification/ IMAC-Ni^2+, ref [41]) was 16.2 µM.

As for AIYK, in series [1] (setting [6]), the half-maximal inhibitory concentration (IC50) was 213 µM.

Turning to VGPAGRRG, the IC50 in series [1] (setting [9]) was 4660 µM.

For GMKCAF, the IC50 in series [1] (lizard fish, affinity purification/ Magnetic agarose-ACE, ref [6]) was 45.7 ± 1.1 µM. Take `CC(C)C[C@H](N)C(=O)O` [leucine]: the “Lipophilicity Parameters” value in series [3] was 3.8. In the case of “MAINPSKENLCSTFCK [peptide produced from casein hydrolysates]”, the inhibition mode result in series [4] (produced from casein hydrolysates, ref [50]) is “mixed-type”.

As to `N[C@@H](CO)C(=O)O` [serine], the “Lipophilicity Parameters” value in series [3] is given as −0.8. On to `NC(=O)CC[C@H](N)C(=O)O` [glutamine], for which the “Lipophilicity Parameters” value in series [3] is −3.5. In the case of `N[C@@H](CC(=O)O)C(=O)O` [aspartic acid], in series [3], the “Lipophilicity Parameters” value is recorded as −3.5.

Take IVTNWDDMGK: the IC50 in series [1] (setting [9]) is 2080 µM. As for `C[C@H](CS)C(=O)N1CCC[C@H]1C(=O)O` [captopril], the side effects entry in series [5] was “cough, taste disturbances, allergic reactions, and skin rashes”. `NCCCC[C@H](N)C(=O)O` [lysine]: the “Lipophilicity Parameters” value in series [3] is −3.9.

As to `CCOC(=O)[C@H](CCc1ccccc1)N[C@H]1CCc2ccccc2N(CC(=O)O)C1=O` [benazepril], in series [5], the side effects result is “cough, taste disturbances, allergic reactions, and skin rashes”.

One may read the IC50 as the concentration that inhibits the measured activity by half.
